# Assays:
# hERG channel = target: T1, hERG channel (Homo sapiens, UniProt Q12809); test: hERG assay, whole cell recordings in CHO cells (AVIVA); type: cell-based; conditions: CHO cells stably expressing hERG, pH 7.4
# T1 construct: host or cells: CHO cells, stably transfected
# Description: The most common mechanism for these adverse events is the inhibition of one or more cardiac potassium channels, in particular hERG. This current is important for cardiac myocyte repolarization and is a common target for drugs that prolong the QT interval. Test articles in this study were therefore characterized to determine their ability to inhibit the hERG channel. Ion channel activity was measured at AVIVA Biosciences Corporation (San Diego, CA), using a stably transfected Chinese Hamster Ovary (CHO) cell line expressing the hERG mRNA.
# Cells: AVIVA's CHO cell line, which stably expresses hERG channels, was used for the study. Cells were cultured in DMEM/F12 containing 10% FBS, 1% penicillin/streptomycin and 500 μg/ml G418. Before testing, cells were harvested using Accumax (Innovative Cell Technologies).
# Solutions: For electrophysiological recordings, the following solutions were used: External Solution: 2 mM CaCl2); 2 mM MgCl2; 4 mM KCl; 150 mM NaCl; 10 mM Glucose; 10 mM HEPES; 305-315 mOsm; pH 7.4 (adjusted with 5M NaOH); Internal Solution: 140 mM KCl; 10 mM MgCl2; 6 mM EGTA; 5 mM HEPES-Na; 5 mM ATP-Mg; 295-305 mOsm; pH 7.25 (adjusted with 1M KOH).
# Electrophysiology: Whole cell recordings were performed using PX 7000A (Axon Instruments) with AVIVA's SealChip™ technology. Cells were voltage clamped at a holding potential of −80 mV. The hERG current was then activated by a depolarizing step to −50 mV for 300 ms. This first step at −50 mV was used as a baseline for measuring peak amplitude of the tail current. Next, a voltage step to +20 mV was applied for 5 s to activate the channels. Finally, a step back to −50 mV for 5 s removed activation and the deactivating tail current was recorded.
# Test Article Handling and Dilutions: All test articles were prepared from 10 mM DMSO stock solutions provided by Sponsor. Solutions were mixed by sonication for 20 min, followed by vigorous vortexing. Prior to testing, compounds were diluted to test concentrations in glass vials using External Solution. Dilutions were prepared no longer than 20 min prior to use.
# Electrophysiology Procedures: After achieving whole cell configuration, cells were monitored for 90 s to assess stability and then washed with External Solution for 66 s. The voltage protocol previously described was then applied to the cells every 12 s throughout the procedure. Only stable cells with recording parameters above threshold (see Quality Control section) were allowed to enter the drug addition procedure. External solution containing 0.1% DMSO (vehicle) was applied to the cells to establish a baseline. […] Test article solutions were added to cells in 4 separate additions. Cells were kept in test solution until effect of the test article reached steady state, to a maximum of 12 min. Next, 1 μM cisapride (positive control) was added. Finally, washout with External Solution was performed until the recovery current reached steady state.
# Data Analysis: Data analysis was performed using DataXpress (Axon Instruments), Clampfit (Axon Instruments) and Origin (OriginLab Corporation) software.
# 5HT2A = 5HT2A (Homo sapiens, UniProt P28223); test: Receptor Selection and Amplification (R-SAT) functional assay; type: cell-based; design: expressed in transfected cells; host or cells: NIH3T3 cells, pSI mammalian expression vector; conditions: NIH3T3 cells; Ki from IC50 by Cheng and Prussoff; read-out: 5-HT2a (pKi) (R-SAT) (converted)
# Sequence of 5HT2A (P28223 whole entry): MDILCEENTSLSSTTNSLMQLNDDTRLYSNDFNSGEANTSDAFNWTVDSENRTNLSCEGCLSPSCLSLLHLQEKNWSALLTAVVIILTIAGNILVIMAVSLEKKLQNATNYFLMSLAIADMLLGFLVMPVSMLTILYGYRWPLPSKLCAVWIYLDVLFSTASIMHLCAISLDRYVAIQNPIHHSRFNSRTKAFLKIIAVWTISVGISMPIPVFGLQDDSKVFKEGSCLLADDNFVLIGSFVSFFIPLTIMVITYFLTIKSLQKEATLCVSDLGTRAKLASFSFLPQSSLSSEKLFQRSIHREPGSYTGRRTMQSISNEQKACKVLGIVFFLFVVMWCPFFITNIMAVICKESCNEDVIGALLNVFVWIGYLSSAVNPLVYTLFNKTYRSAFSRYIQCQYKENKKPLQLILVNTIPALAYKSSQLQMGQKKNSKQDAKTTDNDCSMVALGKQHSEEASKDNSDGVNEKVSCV
# Source text: Receptor Selection and Amplification (R-SAT) Assays. […] The IC50 determined in the RSAT assay was converted into a Ki value using the method of Cheng and Prussoff, Biochem Pharmacol., 1973 Dec. 1; 22(23):3099-108. pKi is the negative of the log(Ki).
# T1 sequence (Q12809 whole entry): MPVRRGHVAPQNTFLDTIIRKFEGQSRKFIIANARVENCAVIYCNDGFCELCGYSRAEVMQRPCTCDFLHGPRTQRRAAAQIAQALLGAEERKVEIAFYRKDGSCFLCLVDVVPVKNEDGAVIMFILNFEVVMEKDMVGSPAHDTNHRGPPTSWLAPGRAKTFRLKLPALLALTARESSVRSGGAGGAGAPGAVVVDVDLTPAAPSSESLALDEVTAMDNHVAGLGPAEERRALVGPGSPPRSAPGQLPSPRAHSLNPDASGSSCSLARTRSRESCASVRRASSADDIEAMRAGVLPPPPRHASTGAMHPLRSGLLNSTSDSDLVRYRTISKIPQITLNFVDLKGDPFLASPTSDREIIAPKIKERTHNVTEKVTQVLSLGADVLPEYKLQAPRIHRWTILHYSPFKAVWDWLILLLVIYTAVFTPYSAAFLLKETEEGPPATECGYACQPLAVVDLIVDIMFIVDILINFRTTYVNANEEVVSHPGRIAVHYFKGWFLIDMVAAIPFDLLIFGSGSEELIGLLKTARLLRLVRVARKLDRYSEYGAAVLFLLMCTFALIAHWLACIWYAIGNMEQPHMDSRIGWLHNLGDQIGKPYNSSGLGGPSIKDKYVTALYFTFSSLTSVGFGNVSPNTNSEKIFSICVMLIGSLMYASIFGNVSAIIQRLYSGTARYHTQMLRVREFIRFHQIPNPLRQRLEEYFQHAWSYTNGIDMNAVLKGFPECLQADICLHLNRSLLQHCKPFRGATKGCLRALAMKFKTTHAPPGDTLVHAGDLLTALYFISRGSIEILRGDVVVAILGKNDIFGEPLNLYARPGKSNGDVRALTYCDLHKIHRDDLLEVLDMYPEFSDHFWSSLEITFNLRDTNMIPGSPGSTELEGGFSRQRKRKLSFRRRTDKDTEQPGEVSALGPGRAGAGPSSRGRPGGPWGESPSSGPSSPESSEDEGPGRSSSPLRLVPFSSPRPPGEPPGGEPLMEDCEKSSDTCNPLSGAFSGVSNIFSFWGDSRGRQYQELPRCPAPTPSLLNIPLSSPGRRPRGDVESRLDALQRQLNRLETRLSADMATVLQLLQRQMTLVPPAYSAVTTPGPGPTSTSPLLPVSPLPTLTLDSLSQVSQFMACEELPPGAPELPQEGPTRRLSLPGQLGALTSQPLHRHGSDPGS
SMILES,Ki (5HT2A),inhibition at 1 µM (hERG channel)
Cc1noc2ccc(CNC(=O)N(Cc3ccc(F)cc3F)C3CCN(C)CC3)cc12 [Example 28],3.98 nM,32%
CN1CCC(N(Cc2ccc(F)cc2F)C(=O)NCc2ccc3c(c2)OCCOC3)CC1 [Example 52],39.8 nM,8%
CC(C)Oc1ccc(CNC(=O)N(Cc2ccc(F)cc2Cl)C2CCN(C)CC2)cc1 [Example 61],15.8 nM,23%
"CN1CCC(N(Cc2ccc(F)cc2F)C(=O)NCc2ccc3c(c2)COC3)CC1 [Example 95, 1-[(2,4-difluorophenyl)methyl]-3-[(1,3-dihydro-2-benzofuran-5-yl)methyl]-1-(1-methylpiperidin-4-yl)urea; Trifluoroacetic Acid]",50.1 nM,8%
"COc1cc(CNC(=O)N(Cc2ccc(F)cc2F)C2CCN(C)CC2)ccc1Cl [Example 98, 3-[(4-chloro-3-methoxyphenyl)methyl]-1-[(2,4-difluorophenyl)methyl]-1-(1-methylpiperidin-4-yl)urea; Trifluoroacetic Acid]",3.16 nM,62%
"CC(C)COc1ccc(CNC(=O)N(Cc2ccc(Cl)cc2Cl)C2CCN(C)CC2)cc1 [Example 107, 1-[(2,4-dichlorophenyl)methyl]-1-(1-methylpiperidin-4-yl)-3-{[4-(2-methylpropoxy)phenyl]methyl}urea]",126 nM,43%
"Cc1ccc(CN(C(=O)NCc2ccc(OC(C)C)cc2)C2CCN(C)CC2)c(F)c1 [Example 115, 1-[(2-fluoro-4-methylphenyl)methyl]-1-(1-methylpiperidin-4-yl)-3-{[4-(propan-2-yloxy)phenyl]methyl}urea; Trifluoroacetic Acid]",0.316 nM,49%
"COc1ccc(CNC(=O)N(Cc2ccc(F)cc2F)C2CCN(C)CC2)cc1 [Example 125, 3-[(2,4-difluorophenyl)methyl]-1-[(4-methoxyphenyl)methyl]-3-(1-methylpiperidin-4-yl)urea]",3.98 nM,17%
"CC(C)Oc1ccc(CNC(=O)N(Cc2ccc(Cl)cc2F)C2CCN(C)CC2)cc1 [Example 137, 1-[(4-chloro-2-fluorophenyl)methyl]-1-(1-methylpiperidin-4-yl)-3-{[4-(propan-2-yloxy)phenyl]methyl}urea; Trifluoroacetic Acid]",3.98 nM,37%
"CC(C)COc1ccc(CNC(=O)N(Cc2ccc(Cl)cc2F)C2CCN(C)CC2)cc1 [Example 139, 1-[(4-chloro-2-fluorophenyl)methyl]-1-(1-methylpiperidin-4-yl)-3-{[4-(2-methylpropoxy)phenyl]methyl}urea; Trifluoroacetic Acid]",3.98 nM,35%

# Second part, led by results:
Ki (5HT2A),SMILES,inhibition at 1 µM (hERG channel)
1.58 nM,"CN1CCC(N(Cc2ccc(F)cc2F)C(=O)NCc2ccc3occc3c2)CC1 [Example 20, 3-[(1-benzofuran-5-yl)methyl]-1-[(2,4-difluorophenyl)methyl]-1-(1-methylpiperidin-4-yl)urea]",30%
79.4 nM,CC(C)COc1ccc(CNC(=O)N(Cc2ccc(F)cc2Cl)C2CCN(C)CC2)cc1 [Example 62],32%
3.98 nM,"CCCOc1ccc(CNC(=O)N(Cc2ccc(F)cc2F)C2CCNCC2)cc1 [Example 76, 1-[(2,4-difluorophenyl)methyl]-1-(piperidin-4-yl)-3-[(4-propoxyphenyl)methyl]urea; Trifluoroacetic Acid]",12%
0.316 nM,"CC(=O)Oc1cc(F)ccc1CN(C(=O)NCc1ccc(OCC(C)C)cc1)C1CCN(C)CC1 [Example 92, 5-fluoro-2-{[1-(1-methylpiperidin-4-yl)({[4-(2-methylpropoxy)-phenyl]methyl}carbamoyl)amino]methyl}phenyl acetate; Trifluoroacetic Acid]",45%
